From patent publication US12459940B2, “Oxazole compound as multi-targeted inhibitor of IRAK4 and BTK” (SHANGHAI FOSUN PHARMACEUTICAL INDUSTRIAL DEVELOPMENT CO., …, priority 2019, dated 2025)
Read-outs that look alike come from different tables or passages of the source.

Experiments:
[1] = tested on: human B-cell lymphoma OCI-LY10 cell subcutaneous xenograft tumor; test: Human B-cell lymphoma OCI-LY10 cell subcutaneous xenograft tumor mouse model; assay type: in vivo; details: 10 mpk, 18 days after the start of administration, p<0.001
Procedure: The objective of the experiment was to study the efficacy of WX001 as the test drug on human B-cell lymphoma OCI-LY10 cell subcutaneous xenograft tumor in CB17 SCID mouse model.
OCI-LY10 human B-cell lymphoma cells were cultured in a 37° C., 5% CO2 incubator.
OCI-LY10 tumor cells were cultured and passaged, and 0.2 mL (1×10^7 cells) OCI-LY10 cells were subcutaneously inoculated on the right back of each […] (with Matrigel, volume ratio 1:1), and the group administration was started when the average tumor volume reached 167 mm^3. The health status and death of animals were monitored every day, and routine examinations included observing the effects of tumor growth and drug treatment on daily behaviors of animals, such as behavioral activities, food intake and water intake, weight change (weight was measured twice a week), tumor size (tumor volume was measured twice a week), appearance signs or other abnormal conditions.
The experimental index was to investigate whether the tumor growth was inhibited, delayed or cured. Including the measurement of tumor volume (TV), and the calculation of the compound's anti-tumor efficacy using TGI (%) or the relative tumor proliferation rate T/C (%).
TV=0.5a×b^2, a and b represented the long diameter and short diameter of the tumor, respectively.
T/C %=TRTV/CRTV×100% (TRTV: RTV in treatment group; CRTV: RTV in negative control group). Relative tumor volume (RTV) was calculated according to the results of tumor measurement, and the calculation formula was RTV=Vt/V0, wherein V0 was the average tumor volume measured at the time of group administration (i.e., d0), Vt was the average tumor volume at a certain measurement, and TRTV and CRTV were the data taken at the same day.

[2] = tested on: TNF-α production in THP-1 cells; test: THP-1 cytological TNFa ELISA assay (LPS-stimulated); assay type: cell-based; details: Homo sapiens, TNF-α in culture supernatant, 150 ng/mL LPS, 18 hours
Procedure: THP-1 human acute […] leukemia cells were purchased from ATCC (Cat #TIB-202) and cultured at 37° C. in 5% CO2 incubator. The composition of medium was RPMI1640 (Gibco, Cat #22400-105), and the supplementary compositions were 10% FBS (Gibco, Cat #10091148); 1% PenStrep (Gibco, Cat #15140); 0.05 mM 2-Mercaptoethanol (Sigma, Cat #M6250).
TNF-α Elisa kit was used to detect the content of TNF-α in cell culture supernatant samples. TNF-α was produced by stimulating THP-1 cells with 150 ng/mL LPS (Sigma, Cat #L6529).
THP-1 cells cultured normally at logarithmic growth stage were seeded in a 96-well plate (Corning #3599) at a certain concentration (1*10^5/100 μL) and then put into a cell incubator for incubation. After two hours, 16.7 μL of different concentrations of the compound to be tested (8*final concentration) were added and incubated in an incubator. After one hour, 16.7 μL of 1200 ng/mL LPS was added and incubated in an incubator. After 18 hours, the culture supernatant samples were collected by centrifugation, and the content of TNF-α could be detected by TNF-α Elisa kit. Finally, OD signals (OD450-OD570) were read on envision board reader.
The OD450-OD570 signal value was converted into a percentage inhibition rate. Inhibition rate %=(ZPE−sample)/(ZPE−HPE)*100.
“HPE” refers to the OD450-OD570 signal value of the control well without LPS stimulated cells, and “ZPE” refers to the OD450-OD570 signal value of the control well with LPS stimulated cells. The IC50 value of the compound was calculated by XLFit in the excel add-in. Y=Bottom+(Top−Bottom)/(1+(IC50/X)^HillSlope). Equation: […]

[3] = tested on: TMD8 human B-cell lymphoma cells; test: TMD-8 cell proliferation inhibition (CellTiter-Glo); assay type: cell-based; details: TMD8, 72 h, treated for 3 days
Procedure: TMD8 human B-cell lymphoma cells were cultured in a 37° C., 5% CO2 incubator. The composition of medium was RPMI1640 (GIBCO, Cat #22400-089); the supplementary compositions were 10% FBS (Hyclone, Cat #SH30084.03); 1% PenStrep (Thermo, Cat #SV30010).
(§1) The tumor cell lines OCI-LY10 and TMD8 were used to detect the effect of the compound on inhibiting tumor cell proliferation in vitro. The tumor cell line was cultured in a 37° C., 5% CO2 incubator according to the culture conditions shown, and passaged regularly, then the cells in the logarithmic growth phase were taken, counted, and spread in a 96-well plate (the cells in each well were adjusted to an appropriate concentration, a total of […] per well was added). After incubating overnight in a 37° C., 5% CO2 incubator, drugs with different concentration gradients (10 μL of drug solution was added) were added and treated for 3 days, then 50 μL of CellTiter-Glo working solution was added to each well, and the cell plate was wrapped with aluminum foil to avoid light. The culture plate was shaken on an orbital shaker for 2 minutes to induce cell lysis, and placed at room temperature for 10 minutes to stabilize the luminescence signal, then the luminescence signal was detected on the 2104 EnVision plate reader.
(§2) The Inhibition rate (IR) of the tested compound was calculated using the following formula: IR (%)=(1−(RLU compound−RLU blank control)/(RLU solvent control−RLU blank control))*100%.
(§3) The inhibition rates of different concentrations of the compounds were calculated in Excel, and then the inhibition curves were made by GraphPad Prism software and the related parameters were calculated, including the minimum inhibition rate, the maximum inhibition rate and IC50.

[4] = tested on: OCI-LY10 human B-cell lymphoma cells; test: OCI-LY10 cell proliferation inhibition (CellTiter-Glo); assay type: cell-based; details: OCI-Ly10, 72 h, treated for 3 days
Procedure: OCI-LY10 human B-cell lymphoma cells were cultured in a 37° C., 5% CO2 incubator. The composition of medium was IMDM (GIBCO, Cat #12440053); the supplementary compositions were 20% FBS (Hyclone, Cat #SH30084.03); 1% PenStrep (Thermo, Cat #SV30010).
as §1, §2, §3

human BTK = target: T1, human BTK (Homo sapiens, UniProt Q06187); test: In vitro BTK kinase activity, 33P isotope-labeled kinase activity assay (Reaction Biology Corp); assay type: biochemical; details: 33P-ATP, 2 hours at room temperature
T1 construct: purchased Reaction Biology Corp
T1 sequence (Q06187 whole entry): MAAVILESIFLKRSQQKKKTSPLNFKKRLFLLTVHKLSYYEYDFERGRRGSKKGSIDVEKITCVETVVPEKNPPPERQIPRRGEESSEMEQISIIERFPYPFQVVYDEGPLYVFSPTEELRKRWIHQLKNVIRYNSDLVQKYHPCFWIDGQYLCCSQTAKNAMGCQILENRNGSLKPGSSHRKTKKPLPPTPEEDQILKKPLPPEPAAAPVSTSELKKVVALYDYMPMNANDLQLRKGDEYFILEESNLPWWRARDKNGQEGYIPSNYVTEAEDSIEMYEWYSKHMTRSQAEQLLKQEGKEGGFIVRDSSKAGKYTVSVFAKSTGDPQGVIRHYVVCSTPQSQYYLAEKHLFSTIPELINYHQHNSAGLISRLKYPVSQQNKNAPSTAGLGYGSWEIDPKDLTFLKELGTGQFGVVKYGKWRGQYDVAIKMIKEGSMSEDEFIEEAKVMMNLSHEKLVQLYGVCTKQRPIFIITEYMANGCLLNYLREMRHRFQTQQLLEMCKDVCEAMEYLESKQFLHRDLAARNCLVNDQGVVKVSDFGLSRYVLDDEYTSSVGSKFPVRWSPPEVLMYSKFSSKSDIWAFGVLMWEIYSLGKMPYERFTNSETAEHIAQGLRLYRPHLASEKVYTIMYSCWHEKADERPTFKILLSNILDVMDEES
Procedure: The IC50 values were determined using ^33P isotope-labeled kinase activity assay (Reaction Biology Corp) to evaluate the inhibitory ability of the tested compounds on human BTK.
(§4) Buffer conditions: 20 mM Hepes (pH 7.5), 10 mM MgCl2, 1 mM EGTA, 0.02% Brij35, 0.02 mg/mL BSA, 0.1 mM Na3VO4, 2 mM DTT, 1% DMSO.
Test procedure: At room temperature, the tested compound was dissolved in DMSO to prepare a 10 mM solution for later use. The substrate was dissolved in a newly prepared buffer solution, and the tested BTK kinase was added thereto and mixed evenly. The compound dissolved in DMSO was added to the kinase reaction mixture through Echo 550 (Acoustic technology; Nanoliter range). After incubation for 20 minutes at room temperature, ^33P-ATP was added to initiate the reaction. The reaction was carried out at room temperature for 2 hours, and the radioactivity of the reaction liquid point was detected by filtration-binding method with P81 ion exchange filter paper. The kinase activity data were expressed by comparing the kinase activity of the group containing the tested compound with the kinase activity of the blank group (only containing DMSO), and the IC50 value was obtained by curve fitting by Prism4 software (GraphPad), the experimental results are shown in Table 10.

human IRAK4 = target: T2, human IRAK4 (Homo sapiens, UniProt Q9NWZ3); test: In vitro IRAK4 kinase activity, 33P isotope-labeled kinase activity assay (Reaction Biology Corp); assay type: biochemical
T2 construct: purchased Reaction Biology Corp
T2 sequence (Q9NWZ3 1-460): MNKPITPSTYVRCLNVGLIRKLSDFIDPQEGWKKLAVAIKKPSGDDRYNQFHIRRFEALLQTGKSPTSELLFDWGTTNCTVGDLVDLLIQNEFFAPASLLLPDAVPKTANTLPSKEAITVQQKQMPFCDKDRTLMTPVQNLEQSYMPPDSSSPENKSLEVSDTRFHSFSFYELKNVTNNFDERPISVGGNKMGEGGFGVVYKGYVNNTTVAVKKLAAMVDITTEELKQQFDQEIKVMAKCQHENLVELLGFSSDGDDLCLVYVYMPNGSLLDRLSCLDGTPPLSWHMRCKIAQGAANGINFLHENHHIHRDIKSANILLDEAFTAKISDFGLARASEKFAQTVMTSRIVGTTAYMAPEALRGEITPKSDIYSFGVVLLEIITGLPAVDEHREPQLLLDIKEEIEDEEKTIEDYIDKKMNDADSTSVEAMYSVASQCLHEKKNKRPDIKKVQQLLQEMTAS
Procedure: The IC50 values were determined using ^33P isotope-labeled kinase activity assay (Reaction Biology Corp) to evaluate the inhibitory ability of the tested compounds on human IRAK4.
as §4
Test procedure: At room temperature, the tested compound was dissolved in DMSO to prepare a 10 mM solution for later use. The substrate was dissolved in a newly prepared buffer solution, and the tested IRAK4 kinase was added thereto and mixed evenly. The DMSO solution dissolved with the tested compound was added to the above reaction mixture mixed evenly using acoustic technique (Echo 550). After incubation for 15 minutes, ^33P-ATP was added to initiate the reaction.

OCI-LY3 cell line = test: OCI-LY3 cell proliferation inhibition (CTG); assay type: cell-based; details: Homo sapiens, incubated for 72 hours
Procedure: The tumor cell line used in this experiment was provided by Nanjing Cobioer Biotechnology Co., Ltd. See Table 13 below for specific information.
The tumor cell lines OCI-LY3 were used to detect the effect of the compound on inhibiting tumor cell proliferation in vitro. The OCI-LY3 cell line was cultured in the corresponding medium at 37° C. and 5% CO2, and the logarithmic growth phase cells were used in the experimental plating. The cells were collected and centrifuged at 800 rpm for 5 minutes, and the culture medium was re-suspended and spread in a 96-well plate. After incubating overnight in a 37° C., 5% CO2 incubator, the cells with different concentration gradients (10 μL of prepared diluent of the tested compound) were incubated for 72 hours, and the cell culture plates were incubated with CTG reagent at room temperature and away from light for 30 minutes, and then recovered to room temperature. 100 μL/hole of CTG solution was added into the biosafety cabinet away from light, and the plate shaker was shaken and mixed evenly away from light for 2 minutes, and incubated at room temperature away from light for 10 minutes. The luminescence values were read and recorded using the Perkin Elmer Envision 2104 MuLtilabel Reader.
The results of luminescence values measured at each drug concentration were normalized with the luminescence values of the blank control group, and the ratio of this value to the DMSO group was taken as the cell inhibition rate (%). Using GraphPad software, the logarithm of drug concentration (log drug concentration) versus inhibition rate was plotted, and the software automatically fitted and calculated IC50 value and 95% confidence limit value by log (inhibitor) vs. normalized response algorithm of nonlinear regression.

Row | IC50 (human IRAK4; 33P-ATP, 120 minutes at room temperature, read-out: IRAK4/IC50) | Structure (SMILES) | T/C value [1] | TGI value [1] | IC50 [2] | IC50 [3] | IC50 [4] | IC50 (human BTK) | IC50 (human IRAK4) | IC50 (OCI-LY3 cell line)
1 | – | C=CC(=O)N1CCC[C@@H](n2nc(-c3ccc(Oc4ccccc4)cc3)c3c(N)ncnc32)C1 [Ibrutinib, reference compound] | 39% | 85% | – | – | – | – | – | –
2 | – | Cc1cc(-c2nc(C(=O)Nc3cn4cc(CCC(=O)O)nc4cc3N3CCC(C)(C)CC3)co2)ccn1 [WX016] | – | – | 170 nM | 221 nM | 466 nM | 8.9 nM | 0.9 nM | –
3 | – | Cc1cc(-c2nc(C(=O)Nc3cn4cc(CCC(C)(C)O)nc4cc3-c3ccccc3)co2)ccn1 [WX021] | – | – | 15 nM | 215 nM | 171 nM | 13.9 nM | 0.5 nM | –
4 | – | Cc1cc(-c2nc(C(=O)Nc3cn4cc(C(C)(C)O)nc4cc3N3CCCCC3)co2)ccn1 [WX040] | – | – | 38 nM | – | 87 nM | 3.3 nM | 1.2 nM | 283 nM
5 | 3.4 nM | Cc1cc(-c2nc(C(=O)Nc3cn4cc(CCC(C)(C)O)nc4cc3N3CCC(C(C)(C)O)CC3)co2)ccn1 [WX045] | – | – | – | – | 77 nM | 28.6 nM | – | 270 nM
